Experimental findings from patent publication US6242432A, “Antithrombotic organic nitrates” (Nicox S.A., priority 1996, dated 2001) are described below.

SMILES strings stand for the structures.

Series [1] has as its system thrombosis induced by collagen plus adrenaline. Nature of the series: Antithrombotic activity: collagen plus adrenaline induced thrombosis/death. Format: in vivo, male Charles River rats of the Swiss strain. As to conditions: 10 mg/kg oral daily for 5 days; collagen plus adrenaline 100 μM into caudal vein. The method, then:
(§1) The products from Examples 1 and 2 had been administered in vivo always as 2%-by-weight suspensions in carboxymethyl cellulose.
(§2) The experimental groups were made up of 6 to 8 samples to allow appropriate statistical evaluation, which was carried out when needed.
5 groups of male Charles River rats of the Swiss strain, 15 to 20 g, received a daily oral dose of 10 mg/kg of, respectively, NO-ENA, enalapril, NO-TIM, timolol or vehicle for 5 days. At an appropriate time on the fourth day food (but not water) was withdrawn. 18 to 20 hours later the animals received the last treatment. One hour later the animals were injected into the caudal vein with 0.1 ml of a collagen (type 6, Sigma) mixture plus adrenaline hydrochloride (100 μM) diluted in a solution of 0.154 M sodium chloride. As previously explained (Cirino G. et al., Thrombosis Reasearch 79, 73, 1995), injection of this mixture caused death within 3 minutes in 90% of the control animals.

In series [2] the test system is platelet aggregation induced by collagen. Nature of the series: Antiplatelet activity: inhibition of collagen-induced platelet aggregation in vivo. Details: species or system male Wistar rats. Particulars: rats, 10 mg/kg oral daily for 5 days; collagen 2 mg/kg i.v.; per-cent inhibition of the control group. The method, then: as §1, §2
The ability of NO-ENA and NO-TIM to inhibit platelet aggregation was evaluated using an in vivo model as described by Pinon (J. Pharmacol. Methods 12,79,1989). 5 groups of male Wistar rats (200 to 250 g) received an oral daily dose of 10 mg/kg of respectively, NO-ENA, enalapril, NO-TIM, timolol or vehicle for 5 days. At an appropriate time on the forth day food (but not water) was withdrawn. 18 to 20 hours later the animals received the last treatment. One hour later the animals were anaesthetized with 10% urethane ([…] intraperitoneally) and the left jugular vein and right carotid artery were incannulated. Collagen (type 6, Sigma) was then administered intravenously at a dose of 2 mg/kg. Three minutes later two blood samples (A and B) were collected from the carotide artery using 2.5-ml plastic syringes in the following manner: sample A, 0.4 ml of blood in 1.6 ml of EDTA/formalin buffer (ETDA tetrasodium salt 24 mM, KH2 PO4 1.3 mM, Na2 PO4 13.4 mM), the samples were then transferred into 5-ml polystyrene test tubes and allowed to settle for 15 minutes at ambient temperature. After this time, the platelet aggregations in sample A were fixed in formalin, while those from sample B were treated with EDTA. Platelet count was then made in each sample using a conventional microscope. The count for sample B was the total number of platelets, while for sample A were considered only non-aggregated platelets. The results were expressed as per-cent aggregation, calculated as follows: {[1-(platelet count in sample A)/(platelet count in sample B)]×100}.

For series [3], the system named is bronchoconstriction induced by capsaicin. Nature of the series: Effects on capsaicin-induced bronchoconstriction. It counts as in vivo, female Guinea pigs. As to conditions: Guinea pigs, 10 mg/kg intraduodenal; capsaicin 1 μg/kg 45 min later; vehicle = 100. Here is the method: Bronchoconstriction induced by capsaicin in Guinea pigs is an animal model related to the ability of ACE (angiotensin-converting enzyme) inhibitors to cause cough in patients (Subissi et al., J. Cardiovasc. Pharmacol.20/1,139-146, 1992).
Adopted test conditions were as previously described by Del Soldato et al. (J. Pharmacological Methods 5, 279, 1981). Female Guinea pigs weighing 300 to 400 g were anaesthetised by intraperitoneal injection of sodium 5,5-diethylbarbiturate (200 mg/kg) and maintained under artificial respiration at constant positive pressure. The right jugular vein was incannulated for administering […]. By a median incision of the abdomen, the duodenum was removed and through a small incision the tip of a suitable polyethylene cannula was inserted and fixed. The other end of the cannula was connected to a syringe for intraduodenal administration of NO-ENA (10 mg/kg), enalapril (10 mg/kg) or vehicle. […] Before and after injection of capsaicin, changes in the tidal area were measured by a modified Konzett apparatus connected to a suitable polygraphic amplifier (Hewlett Packard).
The results were calculated as the ratio of the responses obtained before and after administration of the test compound, expressed as a % of the response obtained with the vehicle alone, shown in Table 4.

The test system of series [4] is arterial hypertension induced by L-NAME. Nature of the series: Antihypertensive activity: L-NAME induced arterial hypertension. It counts as in vivo, male Wistar rats. As to conditions: rats, 10 mg/kg intravenous daily for 5 days, 1 h after treatment, vehicle 170 ± 7, * P < 0.05 versus the other two groups. Here is the method: as §1, §2
The ability of NO-ENA to inhibit hypertension was evaluated using an in vivo model as described by Ribeiro et al. (Hypertension 20, 298, 1992). 5 groups of male Wistar rats (235 to 284 g) received a daily intravenous dose of 10 mg/kg of, respectively, NO-ENA, enalapril, NO-TIM, timolol or vehicle for 5 days. Arterial hypertension was induced by administration of N^w -nitro-L-argininemethyl ester (L-NAME) in the drinking water for 6 weeks. L-NAME was dissolved in the drinking water at a concentration of 60 to 70 mg 100 ml^-1 so as to administer a daily amount of about 60 mg kg^-1. One hour after treatment the systemic blood pressure was measured by the tail-cap method (Zats, Lab. Anim. Sci.42, 198, 1990).

Series [5] has as its system intraocular pressure. Nature of the series: Ocular hypotensive activity, topical application in rabbits. Particulars: topical application of 100 μg. Format: in vivo.
Series [6] in a line: Plasma/aqueous humor concentration ratio by HPLC (ocular safety). Format: in vivo. As to conditions: rabbits, topical, versus timolol. Here is the method:
Furthermore, for NO-TIM, the ratio between product concentrations in plasma (P) and aqueous humor (AH) versus timolol was determined by an HPLC method.

For `CCOC(=O)[C@H](CCc1ccccc1)N[C@@H](C)C(=O)N1CCC[C@H]1C(=O)O` [ENALAPRIL, reference compound], the “ANTITHROMBOTIC ACTIVITY (inhibition percentage compared to the control group)” value in series [1] is reported as 11%. In series [2], the “ANTIPLATELET ACTIVITY (per-cent inhibition of platelet aggregation versus vehicle control)” value came out at 15%. For the same molecule, the “BRONCHOCONSTRICTIVE RESPONSE (% of the response obtained with the vehicle alone)” value in series [3] is on record as 327%. The “MEAN BLOOD PRESSURE” value in series [4] is 163 ± 5 mmHg.
As for `CCOC(=O)C(CCc1ccccc1)NC(C)C(=O)N1CCC[C@H]1C(=O)Oc1cccc(CO[N+](=O)[O-])c1` (stereo partly shown) [NO-ENA], in series [1], the “ANTITHROMBOTIC ACTIVITY (inhibition percentage compared to the control group)” value stood at 53%. Moreover, the “ANTIPLATELET ACTIVITY (per-cent inhibition of platelet aggregation versus vehicle control)” value in series [2] was 65%. Further, in series [3], the “BRONCHOCONSTRICTIVE RESPONSE (% of the response obtained with the vehicle alone)” value turned out to be 72%. In series [5], the “duration of intraocular pressure reduction” value is given as “more than 6 hours”; the “reduction of intraocular pressure” value worked out at 6 mmHg; the “reduction of intraocular pressure versus timolol and enalapril” value was “more pronounced and more lasting”. In addition, in series [4], the “MEAN BLOOD PRESSURE” value is given as 115 ± 4 mmHg.
Take `CC(C)(C)NC[C@H](COc1nsnc1N1CCOCC1)OC(=O)CCCO[N+](=O)[O-].O=C(O)/C=C\C(=O)O` [NO-TIM, (R)-(4-nitroxy)butanoate of 1-[(1,1-dimethylethyl)amino]-3-{[4-(4-morpholinyl)-1,2,5-thiadiazol-3-yl]oxy}-2-propyl maleate]: in series [6], the “P/AH ratio (plasma/aqueous humor concentration), times lower than that for timolol” value came to 5.5 times. Besides, the “ANTITHROMBOTIC ACTIVITY (inhibition percentage compared to the control group)” value in series [1] stood at 44%. Also, in series [2], the “ANTIPLATELET ACTIVITY (per-cent inhibition of platelet aggregation versus vehicle control)” value stood at 58%. For the same molecule, in series [5], the “duration of intraocular pressure reduction” value is listed as “more than 6 hours”; the “reduction of intraocular pressure” value is 7 mmHg; the “reduction of intraocular pressure versus timolol and enalapril” value was “more pronounced and more lasting”.
On to `CC(C)(C)NC[C@H](O)COc1nsnc1N1CCOCC1` [TIMOLOL, reference compound], for which the “ANTITHROMBOTIC ACTIVITY (inhibition percentage compared to the control group)” value in series [1] turned out to be 6%. Also, the “ANTIPLATELET ACTIVITY (per-cent inhibition of platelet aggregation versus vehicle control)” value in series [2] was 2%.
